The record followed here is ChEMBL document CHEMBL1134573, “Utilization of a peptide lead for the discovery of a novel PTP1B-binding motif” (J Med Chem, 2001).

The experiment deals with T1, Tyrosine-protein phosphatase non-receptor type 1 (Homo sapiens, UniProt P18031).
T1 sequence (P18031 whole entry): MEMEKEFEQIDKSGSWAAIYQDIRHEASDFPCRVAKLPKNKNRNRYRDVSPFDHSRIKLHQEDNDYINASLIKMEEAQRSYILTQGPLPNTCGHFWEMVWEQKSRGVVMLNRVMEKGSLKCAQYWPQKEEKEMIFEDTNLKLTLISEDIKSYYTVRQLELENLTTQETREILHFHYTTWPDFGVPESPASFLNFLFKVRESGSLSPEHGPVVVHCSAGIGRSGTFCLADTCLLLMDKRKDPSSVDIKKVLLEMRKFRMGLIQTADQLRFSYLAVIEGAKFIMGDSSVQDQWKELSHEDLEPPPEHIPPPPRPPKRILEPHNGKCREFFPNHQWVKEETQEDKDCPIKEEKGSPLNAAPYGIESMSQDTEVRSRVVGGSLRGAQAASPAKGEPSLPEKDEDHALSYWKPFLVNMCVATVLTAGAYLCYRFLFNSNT
In words: Inhibitory activity against human Protein-tyrosinephosphatase 1B (PTP1B).

Starred links: 1 amine or outer side, 2 acyl side, 3 side chain; linkers in the order of their positions; H or OH if unused. Non-standard residues stand in square brackets, D forms with d. Residues, ends and D or L forms follow the SMILES beside them. X1 = O=C(O)COc1ccc(C[C@H](N[*:1])C(=O)[*:2])cc1C(=O)O; F2Pmp = N[C@@H](Cc1ccc(C(F)(F)P(=O)(O)O)cc1)C(=O)O Some results are limits rather than exact numbers.

Take `COc1ccc2cc(C(=O)O)ccc2c1C(=O)O`: the IC50 turned out to be 20 mM.

In turn, `O=S(=O)(O)c1ccc2c(S(=O)(=O)O)cc(S(=O)(=O)O)cc2c1` registered an IC50 greater than 4 mM.

`O=S(=O)(O)c1ccc2cc(S(=O)(=O)O)ccc2c1` showed an IC50 greater than 4 mM.

On to `O=C(O)c1ccc2cc(OC(F)(F)C(=O)O)ccc2c1`, for which the IC50 was found to be 9.4 mM. This lies in the millimolar range.

Compound `CS(=O)(=O)Nc1cccc2cc(S(=O)(=O)O)ccc12` came in with a half-inhibitory concentration (IC50) of 29 mM.

The compound `O=C(O)c1ccc2c(C(=O)O)cccc2c1` returned a Ki of 0.031 mM. This counts as double-digit micromolar.

For `O=C(O)COc1cc2ccc(C(=O)O)cc2cc1C(=O)O`, the affinity, expressed as Ki, was 0.25 mM.

Consider `O=S(=O)([O-])c1cccc2c(S(=O)(=O)[O-])cccc12.[Na+].[Na+]`, for which the IC50 is 28 mM.

Regarding `NC(=O)[C@H](CCC(=O)O)NC(=O)c1ccc2c(C(=O)O)c(OCC(=O)O)ccc2c1`, the midpoint of inhibition, the IC50, lay at 3.8 mM.

Compound `O=C(O)COc1ccc2cc(C(=O)O)ccc2c1C(=O)O` had a Ki of 0.9 mM.

In turn, `O=C(O)c1ccc2ccc(C(=O)O)cc2c1` yielded a half-inhibitory concentration (IC50) greater than 3.2 mM.

For the compound `COC(=O)c1ccc2c(C(=O)O)c(OC)ccc2c1`, the IC50 stood at 2.8 mM.

On to `O=C(O)c1ccc2cc(C(=O)O)ccc2c1`, for which the IC50 is greater than 4 mM.

`NC(=O)[C@@H](CCC(=O)O)NC(=O)c1ccc2cc(C(F)(F)P(=O)(O)O)ccc2c1` returned a Ki of 0.012 mM.

The compound `O=C(O)c1ccc2cc(C(F)(F)P(=O)(O)O)ccc2c1` registered a Ki of 0.022 mM.

The compound `O=C(O)c1ccc2c(C(=O)O)c(O)ccc2c1` returned an IC50 of 12 mM. In other words, the millimolar range.

`O=C(O)COc1ccc2cc(C(=O)O)ccc2c1` displayed an IC50 of 9.4 mM. This IC50 and that of the compound before are within 1.5-fold of each other.

`CC(=O)N[C@@H](CC(=O)O)C(=O)N[C@@H](C)C(=O)N[C@@H](CC(=O)O)C(=O)N[C@@H](CCC(=O)O)C(=O)N[C@@H](Cc1ccc(C(F)(F)P(=O)(O)O)cc1)C(=O)N[C@@H](CC(C)C)C(N)=O` (Ac-DADE[F2Pmp]L-NH2): affinity was put at a Ki of 0.0002 mM. That is a sub-micromolar value.

On to `CC(=O)N[C@@H](CC(=O)O)C(=O)N[C@@H](C)C(=O)N[C@@H](CC(=O)O)C(=O)N[C@@H](CCC(=O)O)C(=O)N[C@@H](Cc1ccc(OCC(=O)O)c(C(=O)O)c1)C(=O)N[C@@H](CC(C)C)C(N)=O` (Ac-DADE[X1]L-NH2), for which the Ki was determined as 0.0036 mM.
